In patent publication US20210121426A1, “BLOOD PURIFICATION BY ALKALINIZING AGENT” (TOHOKU UNIVERSITY, priority 2017, published 2021):
Marks after values point to notes of the source that are not given here.

Legend:
indoxyl sulfate = assay: Human clinical trial in CKD patients: indoxyl sulfate in plasma and early morning urine (LC-MS/MS); type: in vivo; set-up: key to Influence on concentration of IS / Influence on IS U/P ratio: Excellent effects: ◯; Poor effects: X; No significant difference: —; (◯): whether or not there is an effect of promoting excretion of indoxyl sulfate into the urine cannot be determined
Procedure: (§1) 1. […] Patients were assigned to each group so that age, sex, presence of diabetes, and eGFR were not biased. Each group was treated according to the “CKD medical care guide-summary of treatment” (hereinafter referred to as standard treatment).
(§2) An alkalinizing agent was not administered to the control group. […] A pH of early morning urine was controlled over time so that the dosage could be increased up to 6 tablets, 3 times a day (morning, noon, evening) as needed according to the discretion of the physician in cases where a pH of early morning urine was less than pH 6.5. To the group B, 3 tablets a day in which each tablet contained 500 mg of sodium bicarbonate were orally administered 3 times a day (morning, noon, evening) for 24 weeks. A pH of early morning urine was controlled over time so that the dosage could be increased up to 6 tablets, 3 times a day (morning, noon, evening) as needed according to the discretion of the physician in cases where a pH of early morning urine was less than pH 6.5.
(§3) Early morning urine and blood were collected before the start of administration, and 6 weeks, 12 weeks, and 24 weeks after the start of administration, and each specimen was stored at −80° C. Methods used in the present field for indoxyl sulfate, p-cresyl sulfate, phenylacetyl-L-glutamine, hippuric acid, and argininosuccinic acid in urine and blood (Sato, E., et. al., Metabolic alteration by indoxyl sulfate in skeletal muscle induce uremic sarcopenia in chronic kidney disease., Sci Rep. 2016 Nov. 10; 6:36618. doi: 10.1038/srep36618, and the like) were referred to, and quantitative analysis was performed using the following liquid chromatography triple quadrupole mass spectrometer (LC-MS/MS).
For LC, NANOSPACE SI-2 (manufactured by Shiseido) was used, and […] MGM was selected as the analytical column.
For MS, TSQ Quantiva (manufactured by Thermo Fisher Scientific Co., Ltd.) was used, and five compounds were ionized in the negative mode and detected using the Selected Reaction Monitoring method. The quantitative value was calculated using a calibration curve prepared with a standard solution of each compound.
(§4) For statistical analysis, the Mann-Whitney test was used for comparison between groups, and the Wilcoxon test was used for comparison of changes over time. The Pearson test was used for correlation.
Then, the average value and SD of each group were calculated for (i) to (ix) above. For each of (iv) to (ix) above, the average value and SD of each group were calculated for all data of 6 weeks, 12 weeks, and 24 weeks after the start of administration in each group.

p-cresyl sulfate = assay: Urine p-cresyl sulfate (PCS) corrected by urinary specific gravity; type: in vivo, human
Text: (§5) Medical Examination, Vol. 44, No. 1, 1995, pages 79-83 by Tetsuo Aoki et al. was referred to. A urinary specific gravity 1.022 was converted into a reference value.
(§6) Specific gravity correction value (unit/1.022·UG)=actual measurement value×(1.022−1.000)/(specific gravity value−1.000)

cystatin C = assay: Human clinical trial: cystatin C (colloidal gold agglutination method); type: in vivo
Procedure: as §1, §2, §3
In addition, the amount of urinary β2-microglobulin was measured by latex agglutination method using the LZ test “Eiken” β2-M and LZ-β2-M standard U “Eiken” (Eiken Chemical Co., Tokyo, Japan). Furthermore, the amount of cystatin C in the serum was measured by a colloidal gold agglutination method using Nescoat GC Cystatin C (Nm) (Alfresa Pharma, Osaka, Japan).
as §4

argininosuccinic acid = assay: Urine argininosuccinic acid (ASA) corrected by urinary specific gravity; type: in vivo, human
Text: as §5, §6

[1] = 0 W, before the start of administration
[2] = 6-24 W, all data of 6, 12 and 24 weeks
[3] = compared to before administration

O=C([O-])O.[Na+] [Bicarbonate, sodium bicarbonate]
Indoxyl Sulfate-Urine/Plasma ratio (indoxyl sulfate; [1]): 55.5 ± 43.6 | Plasma Indoxyl Sulfate (indoxyl sulfate; [1]): 1338 ± 770 ng/mL | Urine Indoxyl Sulfate (early morning urine) (indoxyl sulfate; [1]): 54379 ± 40259 ng/mL | Indoxyl Sulfate-Urine/Plasma ratio (indoxyl sulfate; [2]): 46.2 ± 33.7^d | Indoxyl Sulfate-Urine/Plasma ratio, change from week 0 (indoxyl sulfate; [2]): −10.33 ± 36.35 | Plasma Indoxyl Sulfate (indoxyl sulfate; [2]): 1426 ± 930 ng/mL | Plasma Indoxyl Sulfate, change from week 0 (indoxyl sulfate; [2]): 107.0 ± 695.8 ng/mL | Urine Indoxyl Sulfate (early morning urine) (indoxyl sulfate; [2]): 48954 ± 35769^d ng/mL | Urine Indoxyl Sulfate, change from week 0 (indoxyl sulfate; [2]): -5425 ± 38514 ng/mL | Indoxyl Sulfate-Urine/Plasma ratio (indoxyl sulfate; 6 W): 51.7 ± 36.4 | Indoxyl Sulfate-Urine/Plasma ratio, change from week 0 (indoxyl sulfate; 6 W): −3.81 ± 37.48 | Plasma Indoxyl Sulfate (indoxyl sulfate; 6 W): 1365 ± 821 ng/mL | Plasma Indoxyl Sulfate, change from week 0 (indoxyl sulfate; 6 W): 27.5 ± 523.0 ng/mL | Urine Indoxyl Sulfate (early morning urine) (indoxyl sulfate; 6 W): 52510 ± 39229 ng/mL | Urine Indoxyl Sulfate, change from week 0 (indoxyl sulfate; 6 W): -1869 ± 19390 ng/mL | Indoxyl Sulfate-Urine/Plasma ratio (indoxyl sulfate; 12 W): 35.3 ± 26.4 | Indoxyl Sulfate-Urine/Plasma ratio, change from week 0 (indoxyl sulfate; 12 W): −22.41 ± 35.49 | Plasma Indoxyl Sulfate (indoxyl sulfate; 12 W): 1432 ± 1031 ng/mL | Plasma Indoxyl Sulfate, change from week 0 (indoxyl sulfate; 12 W): 153.1 ± 887.4 ng/mL | Urine Indoxyl Sulfate (early morning urine) (indoxyl sulfate; 12 W): 37860 ± 26401 ng/mL | Urine Indoxyl Sulfate, change from week 0 (indoxyl sulfate; 12 W): -16519 ± 40380 ng/mL | Indoxyl Sulfate-Urine/Plasma ratio (indoxyl sulfate; 24 W): 50.7 ± 36.5^c | Indoxyl Sulfate-Urine/Plasma ratio, change from week 0 (indoxyl sulfate; 24 W): −4.78 ± 35.33 | Plasma Indoxyl Sulfate (indoxyl sulfate; 24 W): 1481 ± 988 ng/mL | Plasma Indoxyl Sulfate, change from week 0 (indoxyl sulfate; 24 W): 143.4 ± 682.5 ng/mL | Urine Indoxyl Sulfate (early morning urine) (indoxyl sulfate; 24 W): 56492 ± 39593 ng/mL | Urine Indoxyl Sulfate, change from week 0 (indoxyl sulfate; 24 W): 2113 ± 49356 ng/mL | Influence on concentration of IS (indoxyl sulfate; Plasma, comparison with Cont): — | Influence on concentration of IS (indoxyl sulfate; Plasma, comparison with reference drug): X | Influence on IS U/P ratio (indoxyl sulfate; comparison with Cont): ◯ | Influence on IS U/P ratio (indoxyl sulfate; comparison with reference drug): X | Influence on concentration of IS (indoxyl sulfate; Urine, comparison with Cont): (◯) | Influence on concentration of IS (indoxyl sulfate; Urine, comparison with reference drug): X | concentration of indoxyl sulfate in blood (indoxyl sulfate; [3]): such an effect was not recognized | concentration of indoxyl sulfate in urine (indoxyl sulfate; [3]): such an effect was not recognized | Urine PCS, specific gravity corrected (p-cresyl sulfate; 0 W): 113.0 ± 119.5 μg · mL^−1/1.022 · UG | Urine PCS, specific gravity corrected (p-cresyl sulfate; 6-24 W, all data): 83.2 ± 93.2 μg · mL^−1/1.022 · UG | Urine PCS, specific gravity corrected, % Relative value vs week 0 (p-cresyl sulfate; 6-24 W, all data): 151 ± 323^b,e % | Urine PCS, specific gravity corrected, difference vs week 0 (p-cresyl sulfate; 6-24 W, all data): −29.8 ± 66.1^b,d μg · mL^−1/1.022 · UG | Urine PCS, specific gravity corrected (p-cresyl sulfate; 6 W): 98.1 ± 118.3 μg · mL^−1/1.022 · UG | Urine PCS, specific gravity corrected, % Relative value vs week 0 (p-cresyl sulfate; 6 W): 83 ± 34^d,g % | Urine PCS, specific gravity corrected (p-cresyl sulfate; 12 W): 66.7 ± 73.0 μg · mL^−1/1.022 · UG | Urine PCS, specific gravity corrected, % Relative value vs week 0 (p-cresyl sulfate; 12 W): 105 ± 112% | Urine PCS, specific gravity corrected, difference vs week 0 (p-cresyl sulfate; 12 W): −46.3 ± 68.4^d,g μg · mL^−1/1.022 · UG | Urine PCS, specific gravity corrected (p-cresyl sulfate; 24 W): 84.8 ± 86.0 μg · mL^−1/1.022 · UG | Urine PCS, specific gravity corrected, % Relative value vs week 0 (p-cresyl sulfate; 24 W): 265 ± 540% | Urine PCS, specific gravity corrected, difference vs week 0 (p-cresyl sulfate; 24 W): −28.3 ± 84.4^ μg · mL^−1/1.022 · UG | Plasma Cystatine C (cystatin C; [1]): 1.165 ± 0.296 mg/L | Plasma Cystatine C (cystatin C; [2]): 1.154 ± 0.278 mg/L | Plasma Cystatine C (cystatin C; 6 W): 1.171 ± 0.281 mg/L | Plasma Cystatine C (cystatin C; 12 W): 1.151 ± 0.295 mg/L | Plasma Cystatine C (cystatin C; 24 W): 1.141 ± 0.275 mg/L | influence on the function of glomeruli (cystatin C; from cystatin C, Table 8): no influence | Urine ASA, specific gravity corrected (argininosuccinic acid; 0 W): 5.87 ± 5.13 μg · mL^−1/1.022 · UG | Urine ASA, specific gravity corrected (argininosuccinic acid; 6-24 W, all data): 5.02 ± 3.37 μg · mL^−1/1.022 · UG | Urine ASA, specific gravity corrected, % Relative value vs week 0 (argininosuccinic acid; 6-24 W, all data): 97 ± 31% | Urine ASA, specific gravity corrected, difference vs week 0 (argininosuccinic acid; 6-24 W, all data): −0.85 ± 2.76 μg · mL^−1/1.022 · UG | Urine ASA, specific gravity corrected (argininosuccinic acid; 6 W): 5.47 ± 3.87 μg · mL^−1/1.022 · UG | Urine ASA, specific gravity corrected, % Relative value vs week 0 (argininosuccinic acid; 6 W): 101 ± 32% | Urine ASA, specific gravity corrected, difference vs week 0 (argininosuccinic acid; 6 W): −0.40 ± 2.25 μg · mL^−1/1.022 · UG | Urine ASA, specific gravity corrected (argininosuccinic acid; 12 W): 4.66 ± 2.78 μg · mL^−1/1.022 · UG | Urine ASA, specific gravity corrected, % Relative value vs week 0 (argininosuccinic acid; 12 W): 93 ± 29% | Urine ASA, specific gravity corrected, difference vs week 0 (argininosuccinic acid; 12 W): −0.21 ± 3.04 μg · mL^−1/1.022 · UG | Urine ASA, specific gravity corrected (argininosuccinic acid; 24 W): 4.93 ± 3.58 μg · mL^−1/1.022 · UG | Urine ASA, specific gravity corrected, % Relative value vs week 0 (argininosuccinic acid; 24 W): 97 ± 33% | Urine ASA, specific gravity corrected, difference vs week 0 (argininosuccinic acid; 24 W): −0.94 ± 3.02 μg · mL^−1/1.022 · UG
